# Data reported in EP4541351A1, “COMPOUNDS AND COMBINATION AS STIMULATORS OF COLLAGEN SYNTHESIS” (Center for Intelligent Research in Crystal Engineering, S.L., priority 2023, dated 2025).
# Key:
# [1] = tested on: Immortalized Human Gingival Fibroblasts-hTERT (iHGF); experiment: Total collagen deposition (Sirius red staining) after UVA irradiation; assay type: cell-based; conditions: 7 days after irradiation and treatment
# Description: Collagen deposition was determined according to Walsh et al 1992. […] Collagen was stained with Sirius red F3BA 0.1% in saturated picric acid for 1 hour. Unbound dye was removed by washing with 10 mM HCl, and dye was solubilized with 100 mM NaOH. Absorbance was measured with a microplate reader at 540 nm. Non-treated cells were set as 100%.
# [2] = tested on: Immortalized Human Gingival Fibroblasts-hTERT (iHGF); experiment: Metabolic activity (PrestoBlue cell viability) after UVA irradiation; conditions: 24 h after irradiation and after 7 days of culture and treatment
# Description: Immortalized Human Gingival Fibroblasts-hTERT (iHGF) (Applied Biological Materials Inc) were used for the experiments. Cells were grown at 37 °C in an atmosphere of 5% CO2 using complete fibroblast cell culture medium that consists in Dulbecco's modified Eagle's medium (DMEM) low glucose (Biowest)/Ham's F12 (3/1) (Biowest), supplemented with 10% (v/v) fetal bovine serum embryonic stem cells tested (FBS) (Biowest), 100 g/mL penicillin and 100 g/mL streptomycin (Biowest).
# iHGF were seeded (7 000 cells/well) in 96-well plates (white and transparent tissue culture test-plates) and at confluence, cells were treated with different concentrations (0.1; 1; 10; 50; 75 and 100 µM) of Pteroyouth®, pterostilbene or silybin in complete fibroblast cell culture medium as described above. […] To measure cell viability, cell culture media and treatments were added again to the cells and metabolic activity was measured 24 h after irradiation. […] Cell viability was determined again at day 7, and cell monolayer was used to quantify collagen deposition. […]
# Total metabolic activity was evaluated using the PrestoBlue™ Cell Viability Reagent (Invitrogen, Catalog Number A13261; Life Technologies, Carlsbad, CA, USA), which is used to measure the metabolic activity of cells, being an indicator of their overall health and functionality. […]
Structure (SMILES),total collagen deposition compared to both C and CuVA ([1]; 1 µM),metabolic activity (cell viability) ([2]; 0.1 µM),metabolic activity (cell viability) ([2]; 1 µM),total collagen deposition compared to both C and CuVA ([1]; 0.1 µM),total collagen deposition compared to both C and CuVA ([1]; 10 µM)
"COc1cc(/C=C/c2ccc(O)cc2)cc(OC)c1 [pterostilbene, trans-3,5-dimethoxy-4-hydroxystilbene]",higher collagen deposition,maintain cell viability,maintain cell viability,–,–
COc1cc(C2Oc3cc([C@H]4Oc5cc(O)cc(O)c5C(=O)[C@@H]4O)ccc3OC2CO)ccc1O (stereo partly drawn) [silybin],higher collagen deposition,–,–,higher collagen deposition,higher collagen deposition
